From publication PMC6346587, “Glucose 6-phosphate dehydrogenase 6-phosphogluconolactonase: characterization of the Plasmodium vivax enzyme and inhibitor studies” (Malaria Journal, 2019)
Several values for one entry are separate records, joined by “and”; a condition that tells them apart may be missing. Equal entries are not always repeated. Where two headings read alike, the source gives them in different places.

Key:
PvG6PD = PvG6PD (Plasmodium vivax, UniProt A5K3M1); assay: PvG6PD enzyme inhibition assay (NADPH formation, absorbance 340 nm / fluorescence); assay type: biochemical; conditions: for IC50: read-out: IC50 on PvG6PD
Experimental: The G6PD activity of PfGluPho variants was measured spectrophotometrically as described for the wt enzyme. Kinetic characterization of PvG6PD was performed using the same assay system at an Evolution 300 spectrophotometer (Thermo Scientific, Dreieich, Germany). In brief, the initial reduction of NADP^+ to NADPH by PvG6PD was monitored by measuring the absorbance at 340 nm. The 500 µL reaction mixture contained 200 µM NADP^+ and varying concentrations of PvG6PD in an assay buffer of 100 mM Tris–HCl, pH 8.0, 10 mM MgCl2, and 0.5 mM EDTA at 25 °C. The reaction was started by adding 800 µM G6P. The KM for NADP^+ was determined by titrating NADP^+ from 2 to 400 µM at 800 µM G6P; the KM for G6P was measured accordingly by titrating G6P from 2 to 1200 µM at 200 µM NADP^+. KM values were calculated using GraphPad Prism. Since the KM for G6P was considerably higher than the value measured for PfGluPho [14], a concentration of 800 µM G6P was defined as substrate saturation for PvG6PD.
To identify potential inhibitors of PvG6PD, compounds with already known effects on PfGluPho (ellagic acid and derivatives, ML304) were tested. Additionally, several compound libraries of the Helmholtz Center for Infection Research, Brunswick, were screened against PfGluPho using the high-throughput-compatible assay systems described in Preuss et al.. […] Based on structure-activity relationship studies, a set of new potential G6PD inhibitors (Fig. 8) was then synthesized and assessed. First, the IC50 values of the compounds were determined, followed by mechanistic characterization of the mode of action. To test for selectivity of the compounds, the IC50 values of the compounds on PvG6PD, PfGluPho, and hG6PD were determined in parallel.
All measurements were performed in 96-well plates, half area (Greiner Bio-One, Frickenhausen, Germany) using a Tecan Infinite M200 plate reader (Maennedorf, Switzerland). The compounds were dissolved in 100% DMSO and afterwards diluted in assay buffer to the required concentrations. Different compound concentrations were added to a mixture of enzyme and NADP^+ in assay buffer. Concentrations of substrates differed depending on the enzyme; an overview is given in the Additional file 4. The reaction was started by adding G6P, and the increase of NADPH was monitored by measuring the absorbance at 340 nm. To increase the sensitivity of the assay, some measurements were reproduced, detecting the fluorescence of NADPH at ex340/em460. […] A negative control containing no compound was defined as 0% inhibition; a positive control lacking the substrate G6P was defined as 100% inhibition. For evaluations using GraphPad Prism and Microsoft Excel, only a linear increase in absorbance/fluorescence was considered. For the mechanistic characterization of the compounds, either NADP^+ or G6P were titrated at different compound concentrations around the IC50, while keeping the second substrate in saturation. The initial slope was plotted as Michaelis–Menten curves and Lineweaver–Burk plots using GraphPad Prism; KM values and Vmax were calculated with GraphPad Prism software.

P. falciparum 3D7 [1] = assay: [3H]-hypoxanthine incorporation assay on asexual blood stages; assay type: cell-based, Plasmodium falciparum; conditions: 72 h [3H]-hypoxanthine incorporation assay
PfGluPho = biological target: T1, PfGluPho (Plasmodium falciparum, UniProt Q8IKU0); conditions: ML304; read-out: IC50 on PfGluPho; cited from earlier work
T1 construct: made in house
T1 sequence (Q8IKU0 1-910): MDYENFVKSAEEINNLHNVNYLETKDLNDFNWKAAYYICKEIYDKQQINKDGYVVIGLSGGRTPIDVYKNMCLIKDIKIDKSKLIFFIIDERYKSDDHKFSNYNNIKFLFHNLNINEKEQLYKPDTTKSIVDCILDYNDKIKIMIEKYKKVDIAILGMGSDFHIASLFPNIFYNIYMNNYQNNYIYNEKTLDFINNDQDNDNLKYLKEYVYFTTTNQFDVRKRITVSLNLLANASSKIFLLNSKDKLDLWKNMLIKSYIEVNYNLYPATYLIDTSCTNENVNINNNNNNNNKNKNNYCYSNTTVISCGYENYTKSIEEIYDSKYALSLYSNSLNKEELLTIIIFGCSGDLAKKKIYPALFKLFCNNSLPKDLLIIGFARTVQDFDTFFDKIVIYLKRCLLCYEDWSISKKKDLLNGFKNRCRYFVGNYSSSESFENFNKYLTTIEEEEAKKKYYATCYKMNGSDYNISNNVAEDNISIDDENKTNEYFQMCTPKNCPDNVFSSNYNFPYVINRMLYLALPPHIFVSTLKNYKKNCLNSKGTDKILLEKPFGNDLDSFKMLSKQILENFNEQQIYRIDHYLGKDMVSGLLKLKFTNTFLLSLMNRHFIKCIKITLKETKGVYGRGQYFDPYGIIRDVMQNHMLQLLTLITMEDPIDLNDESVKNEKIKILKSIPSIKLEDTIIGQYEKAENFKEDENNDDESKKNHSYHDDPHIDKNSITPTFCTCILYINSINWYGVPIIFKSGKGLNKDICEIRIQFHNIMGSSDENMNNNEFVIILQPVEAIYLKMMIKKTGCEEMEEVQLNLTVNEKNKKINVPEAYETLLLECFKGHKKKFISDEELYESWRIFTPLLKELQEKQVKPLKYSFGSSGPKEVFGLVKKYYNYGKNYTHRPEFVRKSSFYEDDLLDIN

hG6PD = biological target: T2, hG6PD (Homo sapiens, UniProt P11413); conditions: ML304; read-out: IC50 on human G6PD; cited from earlier work
T2 construct: made in house

P. falciparum 3D7 [2] = conditions: chloroquine-sensitive strain; cited from earlier work
P. falciparum Dd2 = system: P. falciparum Dd2; set-up: method as in PMID 24501782; conditions: CQ resistant strain; cited from earlier work
[3] = system: human hepatocyte cell lines; set-up: method as in PMID 24501782; conditions: cited from earlier work
[4] = system: cytosolic H2O2 levels of NF54-attB; set-up: method as in PMID 28874682; conditions: roGFP2-Orp1 probe, NF54-attB blood stages; cited from earlier work

Sequence of PvG6PD (A5K3M1 entry or part of it): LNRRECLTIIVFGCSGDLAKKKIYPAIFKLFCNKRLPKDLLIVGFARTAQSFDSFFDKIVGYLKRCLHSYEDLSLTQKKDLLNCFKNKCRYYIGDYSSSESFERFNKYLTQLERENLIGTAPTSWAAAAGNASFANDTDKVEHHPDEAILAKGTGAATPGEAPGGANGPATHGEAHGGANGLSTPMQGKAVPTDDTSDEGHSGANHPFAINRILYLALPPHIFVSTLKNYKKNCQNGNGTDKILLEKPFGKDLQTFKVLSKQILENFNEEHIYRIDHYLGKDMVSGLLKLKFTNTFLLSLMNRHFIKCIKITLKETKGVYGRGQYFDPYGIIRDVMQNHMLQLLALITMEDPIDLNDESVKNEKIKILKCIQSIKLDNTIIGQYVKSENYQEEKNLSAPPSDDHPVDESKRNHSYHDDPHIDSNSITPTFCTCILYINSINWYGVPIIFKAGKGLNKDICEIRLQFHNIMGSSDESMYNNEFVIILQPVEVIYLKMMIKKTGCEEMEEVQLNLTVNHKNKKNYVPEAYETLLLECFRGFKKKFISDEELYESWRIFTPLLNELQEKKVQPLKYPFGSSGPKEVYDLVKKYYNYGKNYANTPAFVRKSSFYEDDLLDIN
T2 sequence (P11413 whole entry): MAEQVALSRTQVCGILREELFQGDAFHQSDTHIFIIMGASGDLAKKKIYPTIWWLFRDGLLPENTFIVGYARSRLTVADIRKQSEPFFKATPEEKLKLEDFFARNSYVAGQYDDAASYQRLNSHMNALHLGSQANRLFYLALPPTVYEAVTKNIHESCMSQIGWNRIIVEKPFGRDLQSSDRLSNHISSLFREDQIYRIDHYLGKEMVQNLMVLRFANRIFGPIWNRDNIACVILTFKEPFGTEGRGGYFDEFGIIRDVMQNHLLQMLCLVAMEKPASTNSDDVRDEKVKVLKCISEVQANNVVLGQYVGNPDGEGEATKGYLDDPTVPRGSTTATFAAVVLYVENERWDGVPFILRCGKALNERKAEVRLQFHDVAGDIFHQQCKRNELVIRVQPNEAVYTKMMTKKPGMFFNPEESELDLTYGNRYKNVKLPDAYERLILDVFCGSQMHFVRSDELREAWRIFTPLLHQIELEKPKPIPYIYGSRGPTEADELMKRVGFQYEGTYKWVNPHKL

CCN1CCC[C@@H]1CNC(=O)c1ccc2c(c1)NC(=O)c1cccc(C)c1S2 [ML304]
Type of inhibition of PvG6PD towards G6P (PvG6PD; G6P titrated): competitive inhibitor
Type of inhibition of PvG6PD towards NADP+ (PvG6PD; NADP+ titrated): mixed type inhibitor
Ki (PvG6PD; competitive towards G6P, read-out: Ki on PvG6PD towards G6P): 700 ± 300 nM
Ki (PvG6PD; mixed type towards NADP+, read-out: Ki on PvG6PD towards NADP+): 16300 ± 8800 nM
IC50 (PvG6PD; substrate saturation (800 µM G6P, 200 µM NADP+)): 15300 ± 900 nM
IC50 (PvG6PD; substrates close to KM (85 µM G6P, 15 µM NADP+)): 2600 ± 800 nM
EC50 (P. falciparum 3D7 [1]): 471 ± 39.5 nM
IC50 (PfGluPho): 190 nM
IC50 (hG6PD): 80000 nM and > 80000 nM
Active concentration on P. falciparum 3D7 in cell culture (P. falciparum 3D7 [2]): lower than 1 µM
Active concentration on P. falciparum Dd2 in cell culture (P. falciparum Dd2): about 5 µM
LD50 against human hepatocyte cell lines [3]: > 50 µM
Effect on cytosolic H2O2 levels [4]: significantly increase
